The values below come from patent EP4206196A1, “PYRIMIDINE SUBSTITUTED DERIVATIVES AS TYK2 INHIBITORS” (Almirall S.A., priority 2021, dated 2023).

Experiment [1] addresses T1, TYK2 (JH2domain-pseudokinase) (Homo sapiens, UniProt P29597).
T1 construct: TYK2 (JH2domain-pseudokinase)-tagged T7 phage strains were prepared in an E. coli host derived from the BL21 strain; made in house; host or cells: E. coli BL21-derived host (T7 phage) or HEK-293 cells
Description: TYK2 JH2 domain binding assay (KINOMEscan). The method in brief: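 Competition binding of DNA-tagged TYK2 JH2 pseudokinase domain against immobilised affinity ligand, 1 h at room temperature in SeaBlock/PBS/Tween/DTT buffer with about 1% DMSO. Bound kinase eluted and quantified by qPCR. Kd taken from 11-point 3-fold series, usually 30,000 nM top, fitted by Levenberg-Marquardt nonlinear least squares.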

The test system of experiment [2] is STAT1/3 through TYK2/JAK1. Briefly: IFNa induced STAT phosphorylation in HEK293 cells (SIE-bla reporter gene). It counts as cell-based. Conditions: Homo sapiens, HEK293; HEK293T-sie-bla cells, IFNa at EC80, 4 hours; read-out: Inhibition of IFNa induced STAT phosphorylation HEK293 cells IC50. The method in brief: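 HEK293T cells carrying a SIE-driven β-lactamase reporter were co-treated with compound (1/5 serial dilution, 10 points, 0.1% DMSO final) and IFNa at EC80 for 4 h at 37°C. β-Lactamase substrate was added to stop the stimulation, followed by overnight dark incubation and FRET read. IC50 from a four-parameter logistic fit.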

T1 sequence (P29597 589-875 limits assumed): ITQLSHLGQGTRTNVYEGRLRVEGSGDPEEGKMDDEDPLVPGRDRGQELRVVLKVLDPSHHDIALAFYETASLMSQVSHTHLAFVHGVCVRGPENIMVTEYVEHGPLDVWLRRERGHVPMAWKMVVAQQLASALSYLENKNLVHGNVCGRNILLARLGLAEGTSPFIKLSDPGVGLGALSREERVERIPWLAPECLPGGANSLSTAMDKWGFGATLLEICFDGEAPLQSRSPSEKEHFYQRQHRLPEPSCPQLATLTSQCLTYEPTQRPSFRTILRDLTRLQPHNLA

One may read the Kd as a measure of binding affinity in units of concentration. Read a low Kd as a tighter complex. One may read the IC50 as the midpoint of a concentration-inhibition curve. Take `Cc1cc(Nc2cc(Nc3ccccc3P(C)(C)=O)ncn2)nc(C)n1` [Example 28, 4-N-(2-dimethylphosphorylphenyl)-6-N-(2,6-dimethylpyrimidin-4-yl)pyrimidine-4,6-diamine]: the Kd in experiment [1] is 0.0002 to 0.001 µM. The IC50 in experiment [2] is > 1 µM.
The like results for `Cc1cc(Nc2cc(Nc3ccc(Br)cc3N(C)S(C)(=O)=O)ncn2)nc(C)n1` [Example 67, N-[5-bromo-2-[[6-[(2,6-dimethylpyrimidin-4-yl)amino]pyrimidin-4-yl]amino]phenyl]-N-methyl-methanesulfonamide] were, in that order, < 0.0002 µM and 0.01 to 0.1 µM.
In the case of `COc1c(Nc2cc(Nc3cc(C)nc(C)n3)ncn2)cccc1-c1nnn(C)n1` [Example 41, N4-(2,6-dimethylpyrimidin-4-yl)-N6-[2-methoxy-3-(2-methyltetrazol-5-yl)phenyl]pyrimidine-4,6-diamine], the Kd in experiment [1] is < 0.0002 µM. For the same compound, the IC50 in experiment [2] fell in the range of 0.01 to 0.1 µM.
`COc1c(Nc2cc(Nc3cc(C)nc(C)n3)ncn2)cccc1-c1cnn(C)c1` [Example 15, N4-(2,6-dimethylpyrimidin-4-yl)-N6-[2-methoxy-3-(1-methylpyrazol-4-yl)phenyl]pyrimidine-4,6-diamine] displayed a Kd in experiment [1] of 0.0002 to 0.001 µM. Also, in experiment [2], the IC50 fell in the range of 0.01 to 0.1 µM.
Taken in the same sequence, the figures for `Cc1cc(Nc2cc(Nc3ncc(-c4nnc(C)n4C)cc3N(C)S(C)(=O)=O)ncn2)nc(C)n1` [Example 134, N-[2-[[6-[(2,6-dimethylpyrimidin-4-yl)amino]pyrimidin-4-yl]amino]-5-(4,5-dimethyl-1,2,4-triazol-3-yl)-3-pyridyl]-N-methyl-methanesulfonamide] were 0.0002 to 0.001 µM and > 1 µM.
As to `COc1c(Nc2cc(Nc3cc(C)nc(C)n3)ncn2)cccc1-c1ncn(C2COC2)n1` [Example 43, N4-(2,6-dimethylpyrimidin-4-yl)-N6-[2-methoxy-3-[1-(oxetan-3-yl)-1,2,4-triazol-3-yl]phenyl]pyrimidine-4,6-diamine], the Kd in experiment [1] lay within 0.0002 to 0.001 µM. In addition, the IC50 in experiment [2] was 0.1 to 1 µM.
In turn, `COc1cc(-c2nccn2C)ccc1Nc1cc(Nc2cc(C)nc(C)n2)ncn1` [Example 91, N4-(2,6-dimethylpyrimidin-4-yl)-N6-[2-methoxy-4-(1-methylimidazol-2-yl)phenyl]pyrimidine-4,6-diamine] displayed a Kd in experiment [1] of 0.001 to 0.01 µM. In experiment [2], the IC50 was 0.1 to 1 µM.
On to `CN(c1ccccc1Nc1cc(Nc2ncn(C)n2)ncn1)S(C)(=O)=O` [Example 13, N-methyl-N-[2-[[6-[(1-methyl-1,2,4-triazol-3-yl)amino]pyrimidin-4-yl]amino]phenyl]methanesulfonamide], for which the Kd in experiment [1] is > 0.01 µM. Besides, in experiment [2], the IC50 is > 1 µM.
The like results for `Cc1cc(Nc2cc(Nc3ncccc3N(C)S(C)(=O)=O)ncn2)nc(C)n1` [Example 120, N-[2-[[6-[(2,6-dimethylpyrimidin-4-yl)amino]pyrimidin-4-yl]amino]-3-pyridyl]-N-methyl-methanesulfonamide] were, in that order, < 0.0002 µM and 0.01 to 0.1 µM.
Taken in the same sequence, the figures for `COc1c(Nc2cc(Nc3cc(C)nc(C)n3)ncn2)cccc1-c1ncn(CC2CCCCO2)n1` (stereo not shown) [Example 47, N4-(2,6-dimethylpyrimidin-4-yl)-N6-[2-methoxy-3-[1-(tetrahydropyran-2-ylmethyl)-1,2,4-triazol-3-yl]phenyl]pyrimidine-4,6-diamine] were 0.0002 to 0.001 µM and 0.01 to 0.1 µM.
Consider `COc1c(Nc2cc(Nc3cc(C)nc(C)n3)ncn2)cccc1-c1ncn(CC2CCOCC2)n1` [Example 52, N4-(2,6-dimethylpyrimidin-4-yl)-N6-[2-methoxy-3-[1-(tetrahydropyran-4-ylmethyl)-1,2,4-triazol-3-yl]phenyl]pyrimidine-4,6-diamine], for which, in experiment [1], the Kd is 0.0002 to 0.001 µM. Besides, the IC50 in experiment [2] is 0.1 to 1 µM.
`CN=S(C)(=O)c1cc(-c2cnn(C)c2C)cnc1Nc1cc(Nc2cc(C)nc(C)n2)ncn1` (stereo not shown) [Example 168, N6-[5-(1,5-dimethylpyrazol-4-yl)-3-(N,S-dimethylsulfonimidoyl)-2-pyridyl]-N4-(2,6-dimethylpyrimidin-4-yl)pyrimidine-4,6-diamine]: the Kd in experiment [1] was < 0.0002 µM. For the same compound, in experiment [2], the IC50 was < 0.01 µM.
The like results for `COc1c(-c2nc(C)n(C)n2)ccnc1Nc1cc(Nc2cc(C)nc(C)n2)ncn1` [Example 148, N4-(2,6-dimethylpyrimidin-4-yl)-N6-[4-(1,5-dimethyl-1,2,4-triazol-3-yl)-3-methoxy-2-pyridyl]pyrimidine-4,6-diamine] were, in that order, < 0.0002 µM and 0.01 to 0.1 µM.
Taken in the same sequence, the figures for `Cc1cc(Nc2cc(Nc3ncc(-c4nc(C(F)(F)F)n(C)n4)cc3N(C)S(C)(=O)=O)ncn2)nc(C)n1` [Example 122, N-[2-[[6-[(2,6-dimethylpyrimidin-4-yl)amino]pyrimidin-4-yl]amino]-5-[1-methyl-5-(trifluoromethyl)-1,2,4-triazol-3-yl]-3-pyridyl]-N-methyl-methanesulfonamide] were < 0.0002 µM and 0.01 to 0.1 µM.
The like results for `COc1c(Nc2cc(Nc3cc(C)nc(C)n3)ncn2)cccc1-c1nc(C)nn1C` [Example 40, N6-(2,6-dimethylpyrimidin-4-yl)-N4-[3-(2,5-dimethyl-1,2,4-triazol-3-yl)-2-methoxy-phenyl]pyrimidine-4,6-diamine] were, in that order, 0.001 to 0.01 µM and 0.1 to 1 µM.
For the compound `Cc1cc(Nc2cc(Nc3ccc(Cc4ccccc4)cc3N(C)S(C)(=O)=O)ncn2)nc(C)n1` [Example 109, N-[5-benzyl-2-[[6-[(2,6-dimethylpyrimidin-4-yl)amino]pyrimidin-4-yl]amino]phenyl]-N-methyl-methanesulfonamide], the Kd in experiment [1] is < 0.0002 µM. Moreover, in experiment [2], the IC50 is < 0.01 µM.
As for `COc1c(Nc2cc(Nc3cc(C)nc(C)n3)ncn2)cccc1-c1ncc(F)cn1` [Example 31, N4-(2,6-dimethylpyrimidin-4-yl)-N6-[3-(5-fluoropyrimidin-2-yl)-2-methoxy-phenyl]pyrimidine-4,6-diamine], in experiment [1], the dissociation constant Kd was in the range of 0.0002 to 0.001 µM. Further, the IC50 in experiment [2] was in the range of 0.1 to 1 µM.
Taken in the same sequence, the figures for `COc1c(Nc2cc(Nc3cc(C)nc(C)n3)ncn2)cccc1-c1nc(C)n(CC(F)(F)F)n1` [Example 38, N6-(2,6-dimethylpyrimidin-4-yl)-N4-[2-methoxy-3-[5-methyl-1-(2,2,2-trifluoroethyl)-1,2,4-triazol-3-yl]phenyl]pyrimidine-4,6-diamine] were 0.0002 to 0.001 µM and 0.01 to 0.1 µM.
Regarding `COc1c(Nc2cc(Nc3cc(C)nc(C)n3)ncn2)cccc1-c1noc(CN2CCOCC2)n1` [Example 62, N6-(2,6-dimethylpyrimidin-4-yl)-N4-[2-methoxy-3-[5-(morpholinomethyl)-1,2,4-oxadiazol-3-yl]phenyl]pyrimidine-4,6-diamine], the Kd in experiment [1] is < 0.0002 µM. Besides, the IC50 in experiment [2] was in the range of 0.01 to 0.1 µM.
The like results for `Cc1cc(Nc2cc(Nc3ncc(-c4ccnn4C)cc3N(C)S(C)(=O)=O)ncn2)nc(C)n1` [Example 127, N-[2-[[6-[(2,6-dimethylpyrimidin-4-yl)amino]pyrimidin-4-yl]amino]-5-(2-methylpyrazol-3-yl)-3-pyridyl]-N-methyl-methanesulfonamide] were, in that order, 0.0002 to 0.001 µM and 0.01 to 0.1 µM.
